The compounds below were run against Beta-secretase 1 (Homo sapiens, UniProt P56817) (assay: Inhibition of BACE1).
Sequence of Beta-secretase 1 (P56817 whole entry): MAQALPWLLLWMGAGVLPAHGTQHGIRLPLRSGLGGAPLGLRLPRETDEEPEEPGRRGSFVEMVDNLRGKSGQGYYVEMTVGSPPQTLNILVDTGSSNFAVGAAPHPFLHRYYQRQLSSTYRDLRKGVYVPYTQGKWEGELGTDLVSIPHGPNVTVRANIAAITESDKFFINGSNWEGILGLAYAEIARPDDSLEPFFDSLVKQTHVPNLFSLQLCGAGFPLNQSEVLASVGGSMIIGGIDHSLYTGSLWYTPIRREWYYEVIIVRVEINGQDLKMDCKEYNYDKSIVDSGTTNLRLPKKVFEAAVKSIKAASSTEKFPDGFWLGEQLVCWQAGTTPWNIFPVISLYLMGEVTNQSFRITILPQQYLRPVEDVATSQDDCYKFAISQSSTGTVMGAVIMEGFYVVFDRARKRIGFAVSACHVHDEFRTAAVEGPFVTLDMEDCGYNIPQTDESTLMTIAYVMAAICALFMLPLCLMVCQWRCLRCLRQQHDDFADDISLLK

| Structure (SMILES) | IC50 [µM] |
| --- | --- |
| CC(C)C[C@H](NC(=O)[C@@H](NC(=O)[C@@H](N)CNC(=O)c1nnn[nH]1)C(C)C)C(=O)NC[C@](O)(CCc1ccccc1)C(=O)Nc1cccc(C(=O)O)c1 | 0.19 |
| CC(C)C[C@H](NC(=O)[C@@H](NC(=O)[C@@H](N)CNC(=O)c1nnn[nH]1)C(C)C)C(=O)NCC(O)(Cc1ccccc1)C(=O)Nc1cccc(C(=O)O)c1 (stereo partly specified) | 0.43 |
| CC(C)C[C@H](NC(=O)[C@@H](NC(=O)[C@@H](N)CNC(=O)c1nn[nH]n1)C(C)C)C(=O)NCC(O)(CCc1ccccc1)C(=O)Nc1cccc(C(=O)O)c1 (stereo partly specified) | 0.4 |
| CC(C)C[C@H](NC(=O)[C@@H](NC(=O)[C@@H](N)CNC(=O)c1nn[nH]n1)C(C)C)C(=O)NC[C@@](O)(CCc1ccccc1)C(=O)Nc1cccc(C(=O)O)c1 | 1.4 |
| CC(C)[C@H](NC(=O)[C@@H](N)CNC(=O)c1nn[nH]n1)C(=O)N[C@@H](CC1CCCCC1)C(=O)NCC(O)(Cc1ccccc1)C(=O)Nc1cccc(C(=O)O)c1 (stereo partly specified) | 0.68 |
| CC(C)C[C@H](NC(=O)[C@H](CC(C)C)NC(=O)[C@@H](N)CNC(=O)c1nnn[nH]1)C(=O)NCC(O)(CCc1ccccc1)C(=O)Nc1cccc(C(=O)O)c1 (stereo partly specified) | > 10 |
| CC(C)C[C@H](NC(=O)[C@@H](NC(=O)[C@H](N)CNC(=O)c1nnn[nH]1)C(C)C)C(=O)NCC(O)(CCc1ccccc1)C(=O)Nc1cccc(C(=O)O)c1 (stereo partly specified) | > 10 |
| CC(C)C[C@H](NC(=O)[C@@H](NC(=O)[C@@H](N)CN)C(C)C)C(=O)NCC(O)(CCc1ccccc1)C(=O)Nc1cccc(C(=O)O)c1 (stereo partly specified) | > 10 |
| CC(C)[C@H](NC(=O)[C@@H](NC(=O)[C@@H](N)CNC(=O)c1nnn[nH]1)C(C)C)C(=O)NCC(O)C(=O)Nc1cccc(C(=O)O)c1 (stereo partly specified) | 3 |
| CC(C)C[C@H](NC(=O)[C@@H](NC(=O)[C@H](N)CO)C(C)C)C(=O)NCC(O)C(=O)Nc1cccc(C(=O)O)c1 (stereo partly specified) | > 10 |
| CC(C)C[C@H](NC(=O)[C@@H](NC(=O)[C@@H](N)CNC(=O)c1nnn[nH]1)C(C)C)C(=O)NCCC(=O)Nc1cccc(C(=O)O)c1 | 0.87 |
| CC(C)C[C@H](NC(=O)[C@@H](NC(=O)[C@@H](CO)NC(=O)c1nnn[nH]1)C(C)C)C(=O)NCCC(=O)Nc1cccc(C(=O)O)c1 | > 10 |
| CC(C)C[C@H](NC(=O)[C@@H](NC(=O)[C@@H](N)CNC(=O)c1nn[nH]n1)C(C)C)C(=O)NCC(O)C(=O)O (stereo partly specified) | 6.1 |
| CC(C)C[C@H](NC(=O)[C@@H](NC(=O)[C@@H](N)CNC(=O)c1nnn[nH]1)C(C)C)C(=O)O | 4.4 |

Second part, the compound after the results:

| IC50 [µM] | Structure (SMILES) |
| --- | --- |
| > 10 | CC(C)C[C@H](NC(=O)[C@H](Cc1ccccc1)NC(=O)[C@@H](N)CNC(=O)c1nnn[nH]1)C(=O)NC[C@](O)(CCc1ccccc1)C(=O)Nc1cccc(C(=O)O)c1 |
| > 10 | CC(C)C[C@H](NC(=O)[C@H](Cc1ccccc1)NC(=O)[C@@H](N)CNC(=O)c1nnn[nH]1)C(=O)NC[C@@](O)(CCc1ccccc1)C(=O)Nc1cccc(C(=O)O)c1 |
| > 10 | CCCC[C@H](NC(=O)[C@@H](N)CNC(=O)c1nnn[nH]1)C(=O)N[C@@H](CC(C)C)C(=O)NCC(O)(CCc1ccccc1)C(=O)Nc1cccc(C(=O)O)c1 (stereo partly specified) |
| > 10 | CC(C)C[C@H](NC(=O)C[C@@H](NC(=O)[C@@H](N)CNC(=O)c1nnn[nH]1)C(C)C)C(=O)NCC(O)(CCc1ccccc1)C(=O)Nc1cccc(C(=O)O)c1 (stereo partly specified) |
| > 10 | CC(C)C[C@H](NC(=O)[C@@H](NC(=O)[C@@H](CO)NC(=O)c1nn[nH]n1)C(C)C)C(=O)NCC(O)(CCc1ccccc1)C(=O)Nc1cccc(C(=O)O)c1 (stereo partly specified) |
| > 10 | CC(C)C[C@H](NC(=O)[C@@H](NC(=O)[C@H](CO)NC(=O)c1nnn[nH]1)C(C)C)C(=O)NCC(O)(CCc1ccccc1)C(=O)Nc1cccc(C(=O)O)c1 (stereo partly specified) |
| 0.44 | CC(C)C[C@H](NC(=O)[C@@H](NC(=O)[C@@H](N)CNC(=O)c1nn[nH]n1)C(C)C)C(=O)NCC(O)C(=O)Nc1cccc(C(=O)O)c1 (stereo partly specified) |
| > 10 | CC(C)C[C@H](NC(=O)[C@@H](NC(=O)[C@@H](N)CN)C(C)C)C(=O)NCC(O)C(=O)Nc1cccc(C(=O)O)c1 (stereo partly specified) |
| > 10 | CC(C)C[C@H](NC(=O)[C@@H](NC(=O)[C@H](N)CNC(=O)c1nn[nH]n1)C(C)C)C(=O)NCC(O)C(=O)Nc1cccc(C(=O)O)c1 (stereo partly specified) |
| > 10 | CC(C)[C@H](NC(=O)[C@@H](NC(=O)[C@@H](CO)NC(=O)c1nn[nH]n1)C(C)C)C(=O)NCC(O)C(=O)Nc1cccc(C(=O)O)c1 (stereo partly specified) |
| > 10 | CC(C)C[C@H](NC(=O)[C@@H](NC(=O)[C@H](N)CNC(=O)c1nnn[nH]1)C(C)C)C(=O)NCCC(=O)Nc1cccc(C(=O)O)c1 |
| > 10 | CC(C)C[C@H](NC(=O)[C@@H](NC(=O)[C@H](CO)NC(=O)c1nnn[nH]1)C(C)C)C(=O)NCCC(=O)Nc1cccc(C(=O)O)c1 |

Reference: ChEMBL document CHEMBL1641451, “Investigation of α-phenylnorstatine and α-benzylnorstatine as transition state isostere motifs in the search for new BACE-1 inhibitors” (Bioorg Med Chem, 2011)
